The results in this text go back to patent US10160729B2, “Hsp70 modulators and methods for making and using the same” (Memorial Sloan Kettering Cancer Center, priority 2014, dated 2018).

In this test the test system is MOLM-13 cells. In words: Caspase cleavage assay (Caspase3, 7 activation). Format: cell-based. The note with it: Homo sapiens, 16 h treatment, caspase substrate Z-DEVD-R110, read-out: c* Concentration at which 50% of the maximum signal was achieved (caspase activation). Here is the method:
Caspase3, 7 Activation. MOLM-13 cells (30,000 cells/well) were plated in black 96-well plates (Corning Cat. #3603) in 40 μL of RPMI media, and left in an incubator (37° C., 5% CO2) for up to 24 h. Cells were treated for 16 h with compounds or DMSO (control) at desired concentrations in 50 μL of media. Drugs were added in triplicate wells. Following exposure of cells to Hsp70 inhibitors, 50 μL of buffer containing 10 mM HEPES (pH 7.5), 2 mM EDTA, 0.1% CHAPS and the caspase substrate Z-DEVD-R110 at 25 μM was added to each well. Plates were incubated until the signal stabilized and then the fluorescence signal of each well was measured in an Analyst GT microplate reader. The percentage increase in apoptotic cells was calculated by comparison of the fluorescence reading obtained from treated versus control cells.
For `CN1CCN(c2ncc(Sc3ccc(C(N)=O)c(C(F)(F)F)c3)c(OCc3ccccc3)n2)CC1` [compound 70, 4-((4-(Benzyloxy)-2-(4-methylpiperazin-1-yl)pyrimidin-5-yl)thio)-2-(trifluoromethyl)benzamide], the EC50 was less than 200 nM. For the compound `Cc1cc(C(N)=O)ccc1Sc1cnc(N2CCN(C)CC2)nc1OCc1ccccc1` [compound 73, 4-((4-(Benzyloxy)-2-(4-methylpiperazin-1-yl)pyrimidin-5-yl)thio)-3-methylbenzamide], the EC50 lay within 1000 to 1200 nM. Take `Cc1cc(Sc2cnc(N3CCN(C)CC3)nc2OCc2ccccc2)ccc1C(N)=O` [compound 74, 4-((4-(Benzyloxy)-2-(4-methylpiperazin-1-yl)pyrimidin-5-yl)thio)-2-methylbenzamide]: the EC50 was in the range of 400 to 1000 nM. In the case of `CN1CCN(c2ncc(Sc3ccc(C(N)=O)c(Br)c3)c(OCc3ccccc3)n2)CC1` [compound 77, 4-((4-(Benzyloxy)-2-(4-methylpiperazin-1-yl)pyrimidin-5-yl)thio)-2-bromobenzamide] it was 200 to 400 nM; in that of `CN1CCN(c2ncc(Sc3ccc(C(N)=O)c(Cl)c3)c(OCc3ccccc3)n2)CC1` [compound 78, 4-((4-(Benzyloxy)-2-(4-methylpiperazin-1-yl)pyrimidin-5-yl)thio)-2-chlorobenzamide], 400 to 1000 nM; in that of `CN1CCN(c2ncc(Sc3ccc(C(N)=O)c(F)c3)c(OCc3ccccc3)n2)CC1` [compound 79, 4-((4-(Benzyloxy)-2-(4-methylpiperazin-1-yl)pyrimidin-5-yl)thio)-2-fluorobenzamide], 200 to 400 nM.

With `CN1CCN(c2ncc(Sc3ccc(C(N)=O)c(I)c3)c(OCc3ccccc3)n2)CC1` [compound 80, 4-((4-(Benzyloxy)-2-(4-methylpiperazin-1-yl)pyrimidin-5-yl)thio)-2-iodobenzamide], the EC50 is 400 to 1000 nM. Take `CN1CCN(c2ncc(Sc3ccc(C(=O)O)cc3)c(OCc3ccccc3)n2)CC1` [compound 81, 4-((4-(Benzyloxy)-2-(4-methylpiperazin-1-yl)pyrimidin-5-yl)thio)benzoic acid]: the EC50 fell in the range of 1000 to 1200 nM. `CNC(=O)c1ccc(Sc2cnc(N3CCN(C)CC3)nc2OCc2ccccc2)cc1` [compound 83, 4-((4-(Benzyloxy)-2-(4-methylpiperazin-1-yl)pyrimidin-5-yl)thio)-N-methylbenzamide]: the EC50 was in the range of 400 to 1000 nM. With `CN1CCN(c2ncc(Sc3ccc(C(=O)N(C)C)cc3)c(OCc3ccccc3)n2)CC1` [compound 84, 4-((4-(Benzyloxy)-2-(4-methylpiperazin-1-yl)pyrimidin-5-yl)thio)-N,N-dimethylbenzamide], the EC50 was 200 to 400 nM. Regarding `CN1CCN(c2ncc(Sc3ccc(C(=O)NCN4CCCC4)cc3)c(OCc3ccccc3)n2)CC1` [compound 92, 4-((4-(Benzyloxy)-2-(4-methylpiperazin-1-yl)pyrimidin-5-yl)thio)-N-(pyrrolidin-1-ylmethyl)benzamide], the EC50 was in the range of 400 to 1000 nM. On to `CN1CCN(c2ncc(Sc3ccc(C(=O)NCN4CCCCC4)cc3)c(OCc3ccccc3)n2)CC1` [compound 93, 4-((4-(Benzyloxy)-2-(4-methylpiperazin-1-yl)pyrimidin-5-yl)thio)-N-(piperidin-1-ylmethyl)benzamide], for which the EC50 was 1000 to 1200 nM. As for `COc1ccc(COc2nc(N3CCN(C)CC3)ncc2Sc2ccc(C(N)=O)cc2)cc1` [compound 96, 4-((4-((4-Methoxybenzyl)oxy)-2-(4-methylpiperazin-1-yl)pyrimidin-5-yl)thio)benzamide], the EC50 was 400 to 1000 nM. In the case of `CN1CCN(c2ncc(Sc3ccc(C(N)=O)cc3)c(OCc3cccc(N=[N+]=[N-])c3)n2)CC1` [compound 101, 4-((4-((3-Azidobenzyl)oxy)-2-(4-methylpiperazin-1-yl)pyrimidin-5-yl)thio)benzamide] it was less than 200 nM; in that of `CN1CCN(c2ncc(Sc3ccc(C(N)=O)cc3)c(NCc3ccccc3)n2)CC1` [compound 102, 4-((4-(Benzylamino)-2-(4-methylpiperazin-1-yl)pyrimidin-5-yl)thio)benzamide], 200 to 400 nM; in that of `COc1cccc(COc2nc(N3CCN(C)CC3)ncc2Sc2ccc(C(N)=O)c(Cl)c2)c1` [compound 108, 2-Chloro-4-((4-((3-methoxybenzyl)oxy)-2-(4-methylpiperazin-1-yl)pyrimidin-5-yl)thio)benzamide], less than 200 nM.

In the case of `COc1ccc(F)c(COc2nc(N3CCN(C)CC3)ncc2Sc2ccc(C(N)=O)c(Cl)c2)c1` [compound 109], the EC50 is less than 200 nM. In the case of `COc1cc(F)cc(COc2nc(N3CCN(C)CC3)ncc2Sc2ccc(C(N)=O)c(Cl)c2)c1` [compound 110, 2-Chloro-4-((4-((3-fluoro-5-methoxybenzyl)oxy)-2-(4-methylpiperazin-1-yl)pyrimidin-5-yl)thio)benzamide] it was 200 to 400 nM; in that of `COc1cc(COc2nc(N3CCN(C)CC3)ncc2Sc2ccc(C(N)=O)c(Cl)c2)ccc1F` [compound 111, 2-Chloro-4-((4-((4-fluoro-3-methoxybenzyl)oxy)-2-(4-methylpiperazin-1-yl)pyrimidin-5-yl)thio)benzamide], less than 200 nM. In the case of `COc1c(F)ccc(COc2nc(N3CCN(C)CC3)ncc2Sc2ccc(C(N)=O)c(Cl)c2)c1F` [compound 112, 2-Chloro-4-((4-((2,4-difluoro-3-methoxybenzyl)oxy)-2-(4-methylpiperazin-1-yl)pyrimidin-5-yl)thio)benzamide] it was less than 200 nM. Consider `CN1CCN(c2ncc(Sc3ccc(C(N)=O)c(Cl)c3)c(OCc3ccc(F)c(Cl)c3)n2)CC1` [compound 113, 2-Chloro-4-((4-((3-chloro-4-fluorobenzyl)oxy)-2-(4-methylpiperazin-1-yl)pyrimidin-5-yl)thio)benzamide], for which the EC50 is less than 200 nM. On to `CN1CCN(c2ncc(Sc3ccc(C(N)=O)c(Cl)c3)c(OCc3ccc(F)c(Br)c3)n2)CC1` [compound 114, 4-((4-((3-Bromo-4-fluorobenzyl)oxy)-2-(4-methylpiperazin-1-yl)pyrimidin-5-yl)thio)-2-chlorobenzamide], for which the EC50 is less than 200 nM. Take `CN1CCN(c2ncc(Sc3ccc(C(N)=O)c(Cl)c3)c(OCc3ccc(F)c(C(F)(F)F)c3)n2)CC1` [compound 115, 2-Chloro-4-((4-((4-fluoro-3-(trifluoromethyl)benzyl)oxy)-2-(4-methylpiperazin-1-yl)pyrimidin-5-yl)thio)benzamide]: the EC50 was 200 to 400 nM. For `CN1CCN(c2ncc(Sc3ccc(C(N)=O)c(Cl)c3)c(OCc3cccc(N(C)C)c3)n2)CC1` [compound 116, 2-Chloro-4-((4-((3-(dimethylamino)benzyl)oxy)-2-(4-methylpiperazin-1-yl)pyrimidin-5-yl)thio)benzamide], the EC50 was less than 200 nM. `CN1CCN(c2ncc(Sc3ccc(C(N)=O)c(Cl)c3)c(OCc3cccc(N)c3)n2)CC1` [compound 117, 4-((4-((3-Aminobenzyl)oxy)-2-(4-methylpiperazin-1-yl)pyrimidin-5-yl)thio)-2-chlorobenzamide]: the EC50 fell in the range of 200 to 400 nM. As to `CN1CCN(c2ncc(Sc3ccc(C(N)=O)c(Cl)c3)c(OCc3ccc(F)c(N)c3)n2)CC1` [compound 118, 4-((4-((3-Amino-4-fluorobenzyl)oxy)-2-(4-methylpiperazin-1-yl)pyrimidin-5-yl)thio)-2-chlorobenzamide], the EC50 was 400 to 1000 nM. Consider `CN1CCN(c2ncc(Sc3ccc(C(N)=O)c(Cl)c3)c(OCc3cccc(OC(F)F)c3)n2)CC1` [compound 121, 2-Chloro-4-((4-((3-(difluoromethoxy)benzyl)oxy)-2-(4-methylpiperazin-1-yl)pyrimidin-5-yl)thio)benzamide], for which the EC50 was 200 to 400 nM. As to `CN1CCN(c2ncc(Sc3ccc(C(N)=O)c(Cl)c3)c(OCc3cccc(O)c3)n2)CC1` [compound 122, 2-Chloro-4-((4-((3-hydroxybenzyl)oxy)-2-(4-methylpiperazin-1-yl)pyrimidin-5-yl)thio)benzamide], the EC50 fell in the range of 200 to 400 nM. In the case of `COc1cccc(COc2nc(N3CCN(C)CC3)ncc2Sc2ccc(C(N)=O)c(Cl)c2)n1` [compound 123, 2-Chloro-4-((4-((6-methoxypyridin-2-yl)methoxy)-2-(4-methylpiperazin-1-yl)pyrimidin-5-yl)thio)benzamide] it was 200 to 400 nM; in that of `COc1cc(COc2nc(N3CCN(C)CC3)ncc2Sc2ccc(C(N)=O)c(Cl)c2)ccn1` [compound 124, 2-Chloro-4-((4-((2-methoxypyridin-4-yl)methoxy)-2-(4-methylpiperazin-1-yl)pyrimidin-5-yl)thio)benzamide], less than 200 nM.

On to `COc1cncc(COc2nc(N3CCN(C)CC3)ncc2Sc2ccc(C(N)=O)c(Cl)c2)c1` [compound 125, 2-Chloro-4-((4-((5-methoxypyridin-3-yl)methoxy)-2-(4-methylpiperazin-1-yl)pyrimidin-5-yl)thio)benzamide], for which the EC50 was less than 200 nM. Turning to `COc1ccnc(COc2nc(N3CCN(C)CC3)ncc2Sc2ccc(C(N)=O)c(Cl)c2)c1` [compound 126, 2-Chloro-4-((4-((4-methoxypyridin-2-yl)methoxy)-2-(4-methylpiperazin-1-yl)pyrimidin-5-yl)thio)benzamide], the EC50 fell in the range of 200 to 400 nM. The result for `CN1CCN(c2ncc(Sc3ccc(C(N)=O)c(Cl)c3)c(OCc3ccc(F)c(O)c3)n2)CC1` [compound 127, 2-Chloro-4-((4-((4-fluoro-3-hydroxybenzyl)oxy)-2-(4-methylpiperazin-1-yl)pyrimidin-5-yl)thio)benzamide] reads 400 to 1000 nM.
